One test concerns the target T1, GPR6 (Homo sapiens, UniProt P46095).
T1 construct: expressed in transfected cells; host or cells: CHO cells
Description: GPR6 antagonist functional cAMP assay (LANCE Ultra cAMP TR-FRET, CHO cells stably expressing GPR6). In kind it is cell-based. The procedure, abridged: (§1)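 Compounds, at 0.1% final DMSO, acted on the cells for 45 minutes at 37 °C in the presence of the phosphodiesterase inhibitor Ro 20-1724 (150 μM). After lysis and detection, plates were shaken 1 h at room temperature and emission at 665 nm was recorded. Normalized data gave IC50 values.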

For another test, the target named is T2, GPR3 (Homo sapiens, UniProt P46089).
T2 construct: expressed in transfected cells; host or cells: CHO cells
Description: GPR3 antagonist functional cAMP assay (LANCE Ultra cAMP TR-FRET, CHO cells stably expressing GPR3). In kind it is cell-based. The method in brief: as §1

The mark [1] stands for this setting: CHO cells stably expressing GPR6, cAMP assay (Example 24).
Setting [2] is: CHO cells stably expressing GPR3, cAMP assay (Example 24).
The mark [3] stands for this setting: CHO cells stably expressing GPR6, cAMP assay.
Where [4] appears, read: CHO cells stably expressing GPR3, cAMP assay.
Setting [5] is: procedure as described in Example 24.

T1 sequence (P46095 whole entry): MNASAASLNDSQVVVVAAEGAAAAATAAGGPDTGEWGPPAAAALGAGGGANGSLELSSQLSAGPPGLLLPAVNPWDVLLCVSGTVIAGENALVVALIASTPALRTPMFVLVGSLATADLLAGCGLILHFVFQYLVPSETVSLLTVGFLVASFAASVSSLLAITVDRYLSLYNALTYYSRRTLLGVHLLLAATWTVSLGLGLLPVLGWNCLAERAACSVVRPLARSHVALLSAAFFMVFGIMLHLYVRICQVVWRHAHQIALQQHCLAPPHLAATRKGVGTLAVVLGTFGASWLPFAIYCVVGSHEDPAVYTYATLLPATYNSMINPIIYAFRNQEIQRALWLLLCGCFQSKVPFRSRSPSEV
T2 sequence (P46089 whole entry, species assumed): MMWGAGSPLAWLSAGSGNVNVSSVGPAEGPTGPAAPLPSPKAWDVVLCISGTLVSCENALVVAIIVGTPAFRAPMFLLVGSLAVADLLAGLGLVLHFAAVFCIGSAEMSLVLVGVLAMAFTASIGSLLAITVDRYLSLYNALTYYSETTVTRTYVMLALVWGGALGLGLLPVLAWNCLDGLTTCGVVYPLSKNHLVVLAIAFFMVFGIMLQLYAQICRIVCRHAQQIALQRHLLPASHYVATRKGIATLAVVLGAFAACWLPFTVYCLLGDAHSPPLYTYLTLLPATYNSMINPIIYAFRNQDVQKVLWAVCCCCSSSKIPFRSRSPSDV

On to `Cn1cc(-c2nc3cnc(N)cc3nc2N2CCC(Oc3ccc(F)cc3F)CC2)cn1` [Compound 277, 2-[4-(2,4-difluorophenoxy)piperidin-1-yl]-3-(1-methyl-1H-pyrazol-4-yl)pyrido[3,4-b]pyrazin-7-amine], for which the IC50 is 100 to 1000 nM against GPR6 (procedure of Example 24) and 1000 to 30000 nM against GPR3 (procedure of Example 24).
As to `COc1cncc(-c2nc3cnccc3nc2N2CC3(CC(Oc4ccc(F)cc4F)C3)C2)n1` [Compound 92, 2-(6-(2,4-difluorophenoxy)-2-azaspiro[3.3]heptan-2-yl)-3-(6-methoxypyrazin-2-yl)pyrido[3,4-b]pyrazine], the IC50 against GPR6 (setting [1]) was 1000 to 30000 nM; against GPR3 (setting [2]), at least 30000 nM.
The matching figures for `CC(=O)N1CCc2nc(N3CCC(Oc4ccc(F)cc4F)CC3)c(-c3cnn(CF)c3)nc2C1` [Compound 439, 1-{2-[4-(2,4-difluorophenoxy)piperidin-1-yl]-3-[1-(fluoromethyl)-1H-pyrazol-4-yl]-5H,6H,7H,8H-pyrido[3,4-b]pyrazin-6-yl}ethan-1-one]: under 100 nM and 1000 to 30000 nM.
As for `CC(C)S(=O)(=O)N1CCc2nc(N3CCC(Oc4ccc(F)cc4F)CC3)c(-c3ccc(F)c(N)n3)nc2C1` [Compound 627, 6-{2-[4-(2,4-difluorophenoxy)-1-piperidyl]-6-(isopropylsulfonyl)-5,6,7,8-tetrahydro-1,4,6-triaza-3-naphthyl}-3-fluoro-2-pyridylamine], the IC50 against GPR6 (procedure of Example 24) was in the range of 100 to 1000 nM; against GPR3 (procedure of Example 24), 1000 to 30000 nM.
On to `Cn1cc(-c2nc3ccc(C(O)C(C)(C)O)nc3nc2N2CCN(Cc3ccc(F)cc3F)CC2)cn1` (stereo not shown) [Compound 569, 1-(3-{4-[(2,4-difluorophenyl)methyl]-1-piperazinyl}-2-(1-methyl-4-pyrazolyl)-1,4,5-triaza-6-naphthyl)-2-methyl-1,2-propanediol], for which the IC50 at GPR6 (setting [3]) was 1000 to 30000 nM; against GPR3 (setting [4]), at least 30000 nM.
On to `CC(C)(O)[C@@](C)(O)c1cc2nc(-c3cnn(CF)c3)c(N3CCN(Cc4ccccc4F)CC3)nc2cn1` (single isomer, unassigned) [Compound 715], for which the IC50 was 100 to 1000 nM against GPR6 (procedure of Example 24) and 1000 to 30000 nM at GPR3 (procedure of Example 24).
With `CC(=O)N1CCc2nc(N3CCC(Oc4ccc(F)cc4F)CC3)c(-c3cc[nH]c3)nc2C1` [Compound 46, 1-{2-[4-(2,4-difluorophenoxy)piperidin-1-yl]-3-(1H-pyrrol-3-yl)-5H,6H,7H,8H-pyrido[3,4-b]pyrazin-6-yl}ethan-1-one], the IC50 at GPR6 (setting [5]) is 100 to 1000 nM; against GPR3 (setting [5]), 1000 to 30000 nM.
Consider `CN1CCc2nc(N3CCC(Oc4ccc(F)cc4F)CC3)c(-c3cnn(C4CCCCO4)c3)nc2C1` (stereo not shown) [Compound 169, 4-(2,4-difluorophenoxy)-1-{6-methyl-3-[1-(oxan-2-yl)-1H-pyrazol-4-yl]-5H,6H,7H,8H-pyrido[3,4-b]pyrazin-2-yl}piperidine], for which the IC50 on GPR6 (setting [1]) and at GPR3 (setting [2]) was 1000 to 30000 nM in each case.
`Cn1cc(-c2nc3cnc(Cl)cc3nc2N2CCN(Cc3ccc(F)cc3F)CC2)cn1` [Compound 193, 1-[7-chloro-3-(1-methyl-1H-pyrazol-4-yl)pyrido[3,4-b]pyrazin-2-yl]-4-[(2,4-difluorophenyl)methyl]piperazine]: the IC50 at GPR6 (setting [1]) and on GPR3 (setting [2]) was 1000 to 30000 nM in each case.
Turning to `CC(C)(O)[C@](C)(O)c1cc2nc(N3CCC(Oc4ccc(F)cc4F)CC3)c(-c3cnn(C4CC4)c3)nc2cn1` (single isomer, unassigned) [Compound 664], the IC50 at GPR6 (procedure of Example 24) was 100 to 1000 nM; against GPR3 (procedure of Example 24), 1000 to 30000 nM.
As for `CC(=O)N1CCc2nc(N3CCC(Oc4ccc(F)cc4F)CC3)c(C3CCC(=O)CC3)nc2C1` [Compound 404, 4-(6-acetyl-2-(4-(2,4-difluorophenoxy)piperidin-1-yl)-5,6,7,8-tetrahydropyrido[3,4-b]pyrazin-3-yl)cyclohexan-1-one], the IC50 at GPR6 (setting [1]) and against GPR3 (setting [2]) was 1000 to 30000 nM in each case.
Turning to `CC(=O)N1CCc2nc(N3CCC(Oc4ccc(F)cc4F)CC3)c(-c3cccc(OC(F)(F)F)n3)nc2C1` [Compound 223, 1-{2-[4-(2,4-difluorophenoxy)piperidin-1-yl]-3-[6-(trifluoromethoxy)pyridin-2-yl]-5H,6H,7H,8H-pyrido[3,4-b]pyrazin-6-yl}ethan-1-one], the IC50 at GPR6 (setting [1]) was 100 to 1000 nM; against GPR3 (setting [2]), 1000 to 30000 nM.
On to `CCn1cc(-c2nc3cnc(N)cc3nc2N2CCC(Oc3cc(Cl)ccc3Cl)CC2)cn1` [Compound 440, 2-[4-(2,5-dichlorophenoxy)piperidin-1-yl]-3-(1-ethyl-1H-pyrazol-4-yl)pyrido[3,4-b]pyrazin-7-amine], for which the IC50 on GPR6 (setting [1]) and against GPR3 (setting [2]) was 1000 to 30000 nM each time.
As to `CC(C)(O)[C@](C)(O)c1cc2nc(-c3cnn(C(F)F)c3)c(N3CCN(Cc4cc(F)ccc4F)CC3)nc2cn1` (single isomer, unassigned) [Compound 795], the figures for the IC50 against GPR6 (procedure of Example 24) and at GPR3 (procedure of Example 24) were 100 to 1000 nM and 1000 to 30000 nM, respectively.
Turning to `CC(=O)N1CCc2nc(N3CCN(Cc4cc(F)ccc4Cl)CC3)c(-c3cnn(C)c3)nc2C1` [Compound 506, 1-(2-{4-[(2-chloro-5-fluorophenyl)methyl]-1-piperazinyl}-3-(1-methyl-4-pyrazolyl)-5,6,7,8-tetrahydro-1,4,6-triaza-6-naphthyl)-1-ethanone], the values for the 50% inhibitory concentration (IC50) against GPR6 (setting [3]) and at GPR3 (setting [4]) were 100 to 1000 nM and 1000 to 30000 nM, respectively.
Turning to `Cn1cc(-c2nc3cc([C@H](O)C(C)(C)O)ncc3nc2N2CCN(Cc3ccc(F)cc3F)CC2)cn1` (stereo in doubt) [Compound 370, (Rel-S)-1-(3-(4-(2,4-difluorobenzyl)piperazin-1-yl)-2-(1-methyl-1H-pyrazol-4-yl)pyrido[3,4-b]pyrazin-7-yl)-2-methylpropane-1,2-diol], the IC50 against GPR6 (procedure of Example 24) is under 100 nM; against GPR3 (procedure of Example 24), 1000 to 30000 nM.
Regarding `CC(=O)N1CCc2nc(N3CCC(=Cc4ccccc4F)CC3)c(-c3cnn(C)c3)nc2C1` [Compound 623, 1-(2-{4-[(o-fluorophenyl)methylene]-1-piperidyl}-3-(1-methyl-4-pyrazolyl)-5,6,7,8-tetrahydro-1,4,6-triaza-6-naphthyl)-1-ethanone], the IC50 against GPR6 (procedure of Example 24) and against GPR3 (procedure of Example 24) was 100 to 1000 nM each time.
Take `CC(=O)N1CCc2nc(N3CCC(Oc4ccc(F)cc4F)CC3)c(-c3cnn(CC(C)C)c3)nc2C1` [Compound 195, 1-{2-[4-(2,4-difluorophenoxy)piperidin-1-yl]-3-[1-(2-methylpropyl)-1H-pyrazol-4-yl]-5H,6H,7H,8H-pyrido[3,4-b]pyrazin-6-yl}ethan-1-one]: the IC50 on GPR6 (setting [1]) lay in the range of 100 to 1000 nM; against GPR3 (setting [2]) it was 1000 to 30000 nM.
With `CC(=O)N1CCc2nc(N3CCN(Cc4cccc(=O)n4C)CC3)c(-c3cnn(C)c3)nc2C1` [Compound 533, 6-({4-[6-acetyl-3-(1-methyl-4-pyrazolyl)-5,6,7,8-tetrahydro-1,4,6-triaza-2-naphthyl]-1-piperazinyl}methyl)-1-methyl-2(1H)-pyridinone], the IC50 against GPR6 (setting [3]) and on GPR3 (setting [4]) was at least 30000 nM throughout.
Consider `CC(=O)N1CCc2nc(N3CCC(Oc4ccc(F)cc4F)CC3)c(-c3cnn(C(C)C#N)c3)nc2C1` (stereo not shown) [Compound 208, 2-(4-{6-acetyl-2-[4-(2,4-difluorophenoxy)piperidin-1-yl]-5H,6H,7H,8H-pyrido[3,4-b]pyrazin-3-yl}-1H-pyrazol-1-yl)propanenitrile], for which the values for the IC50 against GPR6 (setting [1]) and against GPR3 (setting [2]) were 100 to 1000 nM and 1000 to 30000 nM, respectively.

Values taken from patent publication US20260042755A1, “GPR6 INVERSE AGONISTS” (MapLight Therapeutics, Inc., priority 2022, published 2026).
